Laboratory results: US10597388B2, “Pyridazinone herbicides” (FMC CORPORATION, priority 2014, dated 2020)

Key:
Format in all cases: in vivo
[1] = tested on: arrowleaf sida (Sida rhombifolia); test: Test E greenhouse herbicide test, pre- and postemergence
How it was run: (§1)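 Scores (0–100, visual, vs controls) reflect greenhouse growth of 14 to 21 d after treatment. Application was pre-emergence to silt loam or post-emergence at the 1- to 4-leaf stage.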

[2] = tested on: crabgrass, Brazilian (Brazilian crabgrass, Digitaria horizontalis); test: as above
How it was run: as §1

[3] = tested on: foxtail, giant (giant foxtail, Setaria faberii); test: as above; conditions: Preemergence
How it was run: as §1

[4] = tested on: foxtail, green (green foxtail, Setaria viridis); test: as above; conditions: Preemergence
How it was run: as §1

[5] = tested on: horseweed (Conyza canadensis); test: as above; conditions: Preemergence
How it was run: as §1

[6] = tested on: johnsongrass (Sorghum halepense); test: as above; conditions: Preemergence
How it was run: as §1

kochia (Kochia scoparia) = test: as above
How it was run: as §1

[7] = tested on: lambsquarters (Chenopodium album); test: as above; conditions: Preemergence
How it was run: as §1

[8] = tested on: nutsedge, yellow (yellow nutsedge, Cyperus esculentus); test: as above; conditions: Preemergence
How it was run: as §1

[9] = tested on: pigweed, palmer (palmer pigweed, Amaranthus palmeri); test: as above
How it was run: as §1

[10] = tested on: ragweed (common ragweed, Ambrosia elatior); test: as above
How it was run: as §1

[11] = tested on: sandbur (southem sandbur, Cenchrus echinatus); test: as above
How it was run: as §1

soybean (Glycine max) = test: as above
How it was run: as §1

[12] = tested on: velvetleaf (Abutilon theophrasti); test: as above; conditions: Preemergence
How it was run: as §1

[13] = tested on: waterhemp (common waterhemp, Amaranthus rudis); test: as above
How it was run: as §1

[14] = tested on: waterhemp_RES1 (ALS & Triazine resistant common waterhemp, Amaranthus rudis); test: Test E greenhouse herbicide test, postemergence
How it was run: (§2)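 Values are visual ratings from 0 (no effect) to 100 (complete control), scored relative to untreated controls 14 to 21 d after treatment. Plants were 1- to 4-leaf seedlings (2 to 18 cm) in potting medium and received postemergence applications of formulated test chemicals.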

[15] = tested on: waterhemp_RES2 (ALS & HPPD resistant common waterhemp, Amaranthus rudis); test: Test E greenhouse herbicide test, postemergence
How it was run: as §2

[16] = 62 g ai/ha, Postemergence, scale 0 to 100 (0 no effect, 100 complete control)
[17] = 62 g ai/ha, Preemergence, scale 0 to 100 (0 no effect, 100 complete control)
[18] = 125 g ai/ha, Postemergence, scale 0 to 100 (0 no effect, 100 complete control)
[19] = 250 g ai/ha, Postemergence, scale 0 to 100 (0 no effect, 100 complete control)
[20] = Postemergence, 31 g ai/ha, visual, scale 0 no effect to 100 complete control
[21] = Preemergence, 31 g ai/ha, scale 0 to 100, 0 no effect, 100 complete control
[22] = Preemergence, 125 g ai/ha, visual, scale 0 no effect to 100 complete control
[23] = Preemergence, 250 g ai/ha, visual, scale 0 no effect to 100 complete control
[24] = 62 g ai/ha, scale 0 to 100 (0 no effect, 100 complete control)
[25] = 31 g ai/ha, scale 0 to 100, 0 no effect, 100 complete control
[26] = 125 g ai/ha, visual, scale 0 no effect to 100 complete control
[27] = 250 g ai/ha, visual, scale 0 no effect to 100 complete control
[28] = 125 g ai/ha, scale 0 to 100 (0 no effect, 100 complete control)
[29] = 125 g ai/ha, Preemergence, scale 0 to 100 (0 no effect, 100 complete control)
[30] = 31 g ai/ha, visual, scale 0 no effect to 100 complete control
[31] = 250 g ai/ha, scale 0 to 100 (0 no effect, 100 complete control)

`CC(=O)Oc1c(C)nn(C)c(=O)c1-c1c(C)sc2ccc(C)cc12` [Compound 25] was tested. Which “Plant response rating, Arrowleaf Sida” value [1, 16] did it give?
The value was 75.

And the “Plant response rating, Arrowleaf Sida” value [1, 17]?
The value was 80.

And the “Plant response rating, Arrowleaf Sida” value [1, 18]?
Its value is 80.

What about the “Plant response rating, Arrowleaf Sida” value [1, 19] of the same compound?
Its value is 85.

What about the “Plant response rating, Arrowleaf Sida” value [1, 20] of the same compound?
Its value is 60.

And the “Plant response rating, Arrowleaf Sida” value [1, 21]?
Its value is 40.

What about the “Plant response rating, Arrowleaf Sida” value [1, 22] of the same compound?
The value was 90.

What about the “Plant response rating, Arrowleaf Sida” value [1, 23] of the same compound?
Its value is 95.

And the “Plant response rating, Crabgrass, Brazil” value [2, 16]?
The value was 40.

What about the “Plant response rating, Crabgrass, Brazil” value [2, 17] of the same compound?
Its value is 90.

And the “Plant response rating, Crabgrass, Brazil” value [2, 18]?
Its value is 50.

What about the “Plant response rating, Crabgrass, Brazil” value [2, 19] of the same compound?
Its value is 50.

And the “Plant response rating, Crabgrass, Brazil” value [2, 20]?
Its value is 30.

What about the “Plant response rating, Crabgrass, Brazil” value [2, 21] of the same compound?
The value was 75.

What about the “Plant response rating, Crabgrass, Brazil” value [2, 22] of the same compound?
Its value is 95.

And the “Plant response rating, Crabgrass, Brazil” value [2, 23]?
The value was 95.

What about the “Plant response rating, Foxtail, Giant” value [3, 24] of the same compound?
The value was 95.

And the “Plant response rating, Foxtail, Giant” value [3, 25]?
The value was 80.

And the “Plant response rating, Foxtail, Giant” value [3, 26]?
The value was 98.

What about the “Plant response rating, Foxtail, Giant” value [3, 27] of the same compound?
The value was 100.

What about the “Plant response rating, Foxtail, Green” value [4, 24] of the same compound?
The value was 98.

And the “Plant response rating, Foxtail, Green” value [4, 25]?
Its value is 65.

What about the “Plant response rating, Foxtail, Green” value [4, 26] of the same compound?
The value was 98.

What about the “Plant response rating, Foxtail, Green” value [4, 27] of the same compound?
The value was 100.

And the “Plant response rating, Horseweed” value [5, 24]?
The value was 100.

And the “Plant response rating, Horseweed” value [5, 25]?
The value was 100.

And the “Plant response rating, Horseweed” value [5, 26]?
Its value is 100.

And the “Plant response rating, Horseweed” value [5, 27]?
The value was 100.

What about the “Plant response rating, Johnsongrass” value [6, 24] of the same compound?
The value was 60.

What about the “Plant response rating, Johnsongrass” value [6, 25] of the same compound?
The value was 75.

What about the “Plant response rating, Johnsongrass” value [6, 26] of the same compound?
Its value is 80.

And the “Plant response rating, Johnsongrass” value [6, 27]?
Its value is 90.

What about the “Plant response rating, Kochia” value (kochia (Kochia scoparia); [16]) of the same compound?
The value was 95.

What about the “Plant response rating, Kochia” value (kochia (Kochia scoparia); [17]) of the same compound?
The value was 80.

What about the “Plant response rating, Kochia” value (kochia (Kochia scoparia); [18]) of the same compound?
The value was 100.

And the “Plant response rating, Kochia” value (kochia (Kochia scoparia); [19])?
Its value is 98.

And the “Plant response rating, Kochia” value (kochia (Kochia scoparia); [20])?
The value was 90.

What about the “Plant response rating, Kochia” value (kochia (Kochia scoparia); [21]) of the same compound?
The value was 20.

What about the “Plant response rating, Kochia” value (kochia (Kochia scoparia); [22]) of the same compound?
Its value is 98.

What about the “Plant response rating, Kochia” value (kochia (Kochia scoparia); [23]) of the same compound?
Its value is 100.

And the “Plant response rating, Lambsquarters” value [7, 24]?
The value was 100.

And the “Plant response rating, Lambsquarters” value [7, 25]?
The value was 98.

What about the “Plant response rating, Lambsquarters” value [7, 26] of the same compound?
The value was 100.

What about the “Plant response rating, Lambsquarters” value [7, 27] of the same compound?
The value was 100.

And the “Plant response rating, Nutsedge, Yellow” value [8, 24]?
The value was 20.

And the “Plant response rating, Nutsedge, Yellow” value [8, 28]?
The value was 20.

And the “Plant response rating, Nutsedge, Yellow” value [8, 25]?
The value was 0.

And the “Plant response rating, Nutsedge, Yellow” value [8, 27]?
Its value is 65.

What about the “Plant response rating, Pigweed, Palmer” value [9, 16] of the same compound?
Its value is 80.

And the “Plant response rating, Pigweed, Palmer” value [9, 17]?
The value was 90.

What about the “Plant response rating, Pigweed, Palmer” value [9, 18] of the same compound?
Its value is 100.

And the “Plant response rating, Pigweed, Palmer” value [9, 29]?
The value was 100.

And the “Plant response rating, Pigweed, Palmer” value [9, 19]?
Its value is 85.

What about the “Plant response rating, Pigweed, Palmer” value [9, 20] of the same compound?
Its value is 75.

What about the “Plant response rating, Pigweed, Palmer” value [9, 21] of the same compound?
The value was 65.

What about the “Plant response rating, Pigweed, Palmer” value [9, 23] of the same compound?
The value was 100.

What about the “Plant response rating, Ragweed” value [10, 16] of the same compound?
Its value is 90.

What about the “Plant response rating, Ragweed” value [10, 17] of the same compound?
Its value is 95.

And the “Plant response rating, Ragweed” value [10, 18]?
The value was 90.

What about the “Plant response rating, Ragweed” value [10, 29] of the same compound?
Its value is 98.

And the “Plant response rating, Ragweed” value [10, 19]?
Its value is 95.

What about the “Plant response rating, Ragweed” value [10, 20] of the same compound?
The value was 90.

What about the “Plant response rating, Ragweed” value [10, 21] of the same compound?
The value was 75.

And the “Plant response rating, Ragweed” value [10, 23]?
The value was 100.

What about the “Plant response rating, Sandbur” value [11, 16] of the same compound?
Its value is 60.

What about the “Plant response rating, Sandbur” value [11, 17] of the same compound?
Its value is 65.

What about the “Plant response rating, Sandbur” value [11, 18] of the same compound?
The value was 70.

What about the “Plant response rating, Sandbur” value [11, 29] of the same compound?
Its value is 80.

What about the “Plant response rating, Sandbur” value [11, 19] of the same compound?
Its value is 75.

And the “Plant response rating, Sandbur” value [11, 20]?
Its value is 50.

And the “Plant response rating, Sandbur” value [11, 21]?
Its value is 35.

What about the “Plant response rating, Sandbur” value [11, 23] of the same compound?
The value was 85.

What about the “Plant response rating, Soybean” value (soybean (Glycine max); [16]) of the same compound?
Its value is 20.

What about the “Plant response rating, Soybean” value (soybean (Glycine max); [18]) of the same compound?
Its value is 30.

What about the “Plant response rating, Soybean” value (soybean (Glycine max); [29]) of the same compound?
Its value is 0.

And the “Plant response rating, Soybean” value (soybean (Glycine max); [19])?
The value was 75.

What about the “Plant response rating, Soybean” value (soybean (Glycine max); [20]) of the same compound?
The value was 0.

And the “Plant response rating, Soybean” value (soybean (Glycine max); [21])?
The value was 0.

What about the “Plant response rating, Soybean” value (soybean (Glycine max); [23]) of the same compound?
Its value is 70.

What about the “Plant response rating, Velvetleaf” value [12, 24] of the same compound?
Its value is 100.

And the “Plant response rating, Velvetleaf” value [12, 28]?
The value was 98.

What about the “Plant response rating, Velvetleaf” value [12, 25] of the same compound?
Its value is 60.

And the “Plant response rating, Velvetleaf” value [12, 27]?
The value was 100.

What about the “Plant response rating, Waterhemp” value [13, 16] of the same compound?
Its value is 80.

And the “Plant response rating, Waterhemp” value [13, 17]?
Its value is 100.

And the “Plant response rating, Waterhemp” value [13, 18]?
The value was 85.

What about the “Plant response rating, Waterhemp” value [13, 29] of the same compound?
Its value is 100.

And the “Plant response rating, Waterhemp” value [13, 19]?
Its value is 90.

And the “Plant response rating, Waterhemp” value [13, 20]?
The value was 80.

And the “Plant response rating, Waterhemp” value [13, 21]?
The value was 100.

And the “Plant response rating, Waterhemp” value [13, 23]?
Its value is 100.

What about the “Plant response rating, Waterhemp_RES1” value [14, 30] of the same compound?
The value was 75.

What about the “Plant response rating, Waterhemp_RES1” value [14, 24] of the same compound?
The value was 80.

And the “Plant response rating, Waterhemp_RES1” value [14, 28]?
Its value is 85.

And the “Plant response rating, Waterhemp_RES1” value [14, 31]?
The value was 95.

And the “Plant response rating, Waterhemp_RES2” value [15, 30]?
Its value is 70.

And the “Plant response rating, Waterhemp_RES2” value [15, 24]?
Its value is 60.

What about the “Plant response rating, Waterhemp_RES2” value [15, 28] of the same compound?
The value was 70.

And the “Plant response rating, Waterhemp_RES2” value [15, 31]?
Its value is 75.
